Data on one compound can be found in patent publication US20190192458A1, “THERAPEUTIC/PROPHYLACTIC AGENT FOR GRAFT-VERSUS-HOST DISEASE, FIBROCYTE INVASION INHIBITOR, AND INHIBITOR AGAINST TEAR REDUCTION AND REDUCTION IN GOBLET CELLS” (KEIO UNIVERSITY, priority 2016, published 2019).

Test [1] has as its system CTGF. Put plainly: Immunoblot analysis of fibrosis marker CTGF in organs. It counts as in vivo, mouse. To be noted: PBA-treated vs vehicle-treated organs, n=4, P<0.05, FIG. 5B, 5C. How it is done:
Bone marrow transplantation was performed as described in the above section “Bone marrow transplantation,” and the resulting allogeneic bone marrow transplantation recipient mice were divided into two groups. One group was treated with intraperitoneal injection of PBA (10 mg/kg) (Aldrich) while the other was treated with intraperitoneal injection of a solvent vehicle⋅phosphate buffered saline (PBS) (pH 7.4). The allogeneic bone marrow transplantation recipients received once-daily administration of PBA or the solvent vehicle from Day 10 to Day 27 after bone marrow transplantation. They were sacrificed on Day 28 after bone marrow transplantation. […]
Proteins of interest were visualized by either one of the following two methods. (1) A target protein was colorimetrically detected using a BCIP/NBT substrate (Promega). […]
The intensity of the resulting protein band was analyzed using image processing software ImageJ. […]
With regard to the secondary antibody, (1) either AP-conjugated anti-mouse IgG antibody (Promega) or AP-conjugated anti-rabbit IgG antibody (Promega) was used when protein bands were chromogenically visualized; (2) HRP-conjugated anti-mouse antibody (Thermo Fisher Scientific) or HRP-conjugated anti-rabbit antibody (Thermo Fisher Scientific) was used when target proteins were detected by ECL.
On the technique in general: In western blotting, separated proteins are transferred to a membrane and probed.

The test system of test [2] is mouse splenic macrophages. Put plainly: Cultured splenic macrophages from PBA-treated and vehicle-treated mice (immunofluorescence, immunoblot, qPCR). It counts as cell-based. How it is done:
Bone marrow transplantation was performed as described in the above section “Bone marrow transplantation,” and the resulting allogeneic bone marrow transplantation recipient mice were divided into two groups. One group was treated with intraperitoneal injection of PBA (10 mg/kg) (Aldrich) while the other was treated with intraperitoneal injection of a solvent vehicle⋅phosphate buffered saline (PBS) (pH 7.4). The allogeneic bone marrow transplantation recipients received once-daily administration of PBA or the solvent vehicle from Day 10 to Day 27 after bone marrow transplantation. They were sacrificed on Day 28 after bone marrow transplantation.
Mouse splenic macrophages were cultured according to the Alatery and Besta method (Alatery A, Basta S, An efficient culture method for generating large quantities of mature mouse splenic macrophages. J Immunol Methods, 2008; 338: 47-57). Splenic cells suspended in RPMI containing 5% FBS were plated on a culture dish, and allowed to stand at 37° C. overnight. Subsequently, floating cells were removed. The desired cells adhering on the dish were cultured for 7 days in RPMI containing recombinant mouse M-CSF (5 ng/mL) (Peprotech Inc.), 5% of FBS, and 5% of the antibiotic. Induced macrophages were then detached from the culture dish by using accutase (Thermo Fisher Scientific), and used for experiments.
The induced macrophages were then transferred to an 8-well chamber slide (Fibronectin Culture Slide; Corning), and fixed with 10% neutral buffered formalin. Subsequently, they were blocked with methanol containing 0.3% hydrogen peroxide for 30 minutes at room temperature, and incubated with primary antibodies CD68 (AbD Serotec) and CHOP (Santa Cruz) overnight at 4° C. Then, the sections were treated with goat anti-mouse IgG (H+L) secondary antibody conjugated with Alexa Fluor 568 (Molecular Probes) and 4′,6-diamidino-2-phenylindole (DAPI) (Life Technologies) at room temperature for 45 minutes, and then mounted with an anti-fading mounting medium (Dako). Fluorescence images were captured under an LSM confocal microscope (Carl Zeiss).
The total RNA was extracted from the exorbital lacrimal gland, the proximal portion of the small intestine, the dorsal skin, the liver, the cultured fibroblasts, and the cultured macrophages using a miRNeasy mini kit (Qiagen), and the corresponding complementary DNAs were synthesized using a Rever Tra Ace qPCR RT kit (Toyobo Co., Ltd.). Primers used for analyzing the mRNA expression of the following genes with the TaqMan real-time polymerase chain reaction (PCR) were purchased from Applied Biosystems: housekeeping gene […] (GAPDH), glucose-regulated protein 78 (GRP78), Interleukin-1β (IL-1β), IL-6, IL-10, macrophage chemoattractant protein-1 (MCP-1), and transcription growth factor-β (TGF). A Step One Plus system (Applied Biosystems) was used to perform quantitative real time PCR, and the resulting data was analyzed by the 2^−ΔΔCT method. GAPDH was used as an internal standard for measuring the expression of mRNA.
Tissues of interest were each placed into an Eppendorf tube, and a pre-cooled RIPA buffer solution was then added to the tube. Subsequently, the tissues were each homogenized with an electric homogenizer. Samples were each allowed to stand on ice for 1 hour, and then centrifuged at 15000 rpm for 5 minutes at 4° C. Then, the supernatants were each collected in a fresh tube on ice, and used as a cell lysate. The cell lysates each received the same amount of a 5×Laemmli buffer solution, and each was heated at 100° C. for 5 minutes to denature proteins.
An aliquot of each sample having the same amount of proteins was loaded into a well of an SDS-PAGE gel, and then […]. Proteins were transferred from the gel to a membrane at 15 V for 20 minutes. The membrane was blocked at room temperature for 1 hour with 5% skim milk or 5% BSA (bovine serum albumin) in 1×TBST (a mixture of Tris-buffered saline and Tween 20). […]

The mark [3] stands for this setting: splenic macrophages from PBA-treated vs vehicle-treated mouse, immunoblot, n=4.
Where [4] appears, read: splenic macrophages, qPCR, n=4 to 5, PBA-treated vs vehicle-treated, FIG. 7E.

As for `O=C(O)CCCc1ccccc1` [PBA, 4-phenyl-n-butyric acid], the “CTGF expression in organs” value in test [1] is reported as “overexpressed in the vehicle-treated organs, but not in the PBA-treated organs”. Moreover, the “CHOP expression in cultured splenic macrophages (immunofluorescence)” value in test [2] (splenic macrophages from PBA-treated vs vehicle-treated mouse, FIG. 7B) is on record as “vehicle-treated splenic macrophages express CHOP in contrast with PBA-treated splenic macrophages”. In test [2] (setting [3]), the “CHOP in splenic macrophages (immunoblot)” value is “substantially inhibited”, the “GRP78 in splenic macrophages” value is given as “substantially inhibited”, the “phosphorylated IRE1α in splenic macrophages” value is reported as “substantially inhibited” and the “phosphorylated PERK in splenic macrophages” value is listed as “substantially inhibited”. The “phosphorylated eIF2α in splenic macrophages” value in test [2] (setting [3]) is on record as “substantially inhibited”. In test [2] (setting [4]), the “gene expression of M1 macrophage marker IL-1β” value is recorded as “higher gene expressions”, the “gene expression of M1 macrophage marker IL-6” value is “higher gene expressions”, the “mRNA expression of M2 macrophage marker IL-10” value was “increased in the vehicle-treated macrophages as compared with the PBA-treated macrophages” and the “mRNA expression of M2 macrophage marker TGF-β” value is reported as “increased in the vehicle-treated macrophages as compared with the PBA-treated macrophages”.
